The source made the active and inactive calls. No cut-off for these calls is given here.

The species named for assay [1] is Bos taurus. The assay is described as follows: Enhancement of bovine tubulin stability at <=0 degC.
The species entered for assay [2] is Bos taurus. Put plainly: Binding affinity to bovine tubulin assessed as drug level in bound to per mole of colchicine site at <=0 degC after 60 mins by total binding assay.
The species entered for assay [3] is Bos taurus. Put plainly: Binding affinity to bovine tubulin assessed as drug level in bound to per mole of colchicine site at <=20 degC after 1 min by total binding assay.
Assay [4] is filed under the species Bos taurus. The assay is described as follows: Binding affinity to bovine tubulin assessed as drug level in bound to per mole of colchicine site at <=20 degC after 1 min by covalent binding assay.
For assay [5], the species on record is Bos taurus. The assay is described as follows: Binding affinity to bovine tubulin assessed as drug level in bound to per mole of colchicine site at <=20 degC after 60 mins by total binding assay.
Assay [6] is filed under the species Bos taurus. Put plainly: Binding affinity to bovine tubulin assessed as drug level in bound to per mole of colchicine site at <=20 degC after 60 mins by covalent binding assay.
For assay [7], the species on record is Bos taurus. The assay is described as follows: Binding affinity to bovine tubulin at 5 uM in <=0 degC after 60 mins. As to conditions: tested as the 14C-labelled form.
For assay [8], the species on record is Bos taurus. Put plainly: Binding affinity to bovine tubulin at 5 uM in <=20 degC after 60 mins. To be noted: tested as the 14C-labelled form.
The species entered for assay [9] is Bos taurus. Put plainly: Binding affinity to bovine microtubules assessed as drug level in bound to per mole taxoid site at <=0 degC after 1 min by total binding assay.
For assay [10], the species on record is Bos taurus. Put plainly: Binding affinity to bovine microtubules assessed as drug level in bound to per mole taxoid site at <=0 degC after 1 min by covalent binding assay.
The species entered for assay [11] is Bos taurus. The assay is described as follows: Binding affinity to bovine microtubules assessed as drug level in bound to per mole taxoid site at <=0 degC after 60 mins by total binding assay.
The species named for assay [12] is Bos taurus. The assay is described as follows: Binding affinity to bovine microtubules assessed as drug level in bound to per mole taxoid site at <=0 degC after 60 mins by covalent binding assay.
For assay [13], the species on record is Bos taurus. The assay is described as follows: Binding affinity to bovine microtubules assessed as drug level in bound to taxoid site at <=20 degC after 1 min by total binding assay.
The species entered for assay [14] is Bos taurus. The assay is described as follows: Binding affinity to bovine microtubules assessed as drug level in bound to taxoid site at <=0 degC after 1 min by covalent binding assay.
The species entered for assay [15] is Bos taurus. Put plainly: Binding affinity to bovine microtubules assessed as drug level in bound to taxoid site at <=20 degC after 60 mins by total binding assay.
For assay [16], the species on record is Bos taurus. Put plainly: Binding affinity to bovine microtubules assessed as drug level in bound to taxoid site at <=0 degC after 60 mins by covalent binding assay.
Assay [17] is filed under the species Bos taurus. Put plainly: Binding affinity to bovine tubulin assessed as drug level in bound to per mole of colchicine site at <=0 degC after 1 min by total binding assay.

For the compound `CC(=O)O[C@H]1C(=O)[C@@]2(C)[C@H]([C@H](OC(=O)c3ccccc3)[C@]3(O)C[C@H](OC(=O)[C@H](O)[C@@H](NC(=O)c4ccccc4)c4ccccc4)C(C)=C1C3(C)C)[C@]1(OC(C)=O)CO[C@@H]1C[C@@H]2O`, the outcome in the assay filed under Bos taurus [1] was Active.

`CC(=O)O[C@H]1[C@H](C)[C@@H](O)[C@H]2[C@H]1C=C(C)[C@@H]1C[C@@H]3[C@@H](C4=C5O[C@]3(C)CC[C@H](OC4=O)[C@H]5C)[C@H]21`: the stoichiometry in the assay listed under Bos taurus [2] stood at 0.06 mol/mol; in the assay listed under Bos taurus [4] it was 0.7 mol/mol; in the assay listed under Bos taurus [5] it was 0.81 mol/mol; in the assay listed under Bos taurus [9] it was 0.14 mol/mol. Further, the Activity in the assay filed under Bos taurus [3] was 0.6 mol/mol; in the assay filed under Bos taurus [6], 0.88 mol/mol; in the assay listed under Bos taurus [10], 0.13 mol/mol; in the assay filed under Bos taurus [11], 0.38 mol/mol; in the assay listed under Bos taurus [12], 0.35 mol/mol; in the assay filed under Bos taurus [13], 0.53 mol/mol. For the same compound, the Activity worked out at 0.46 mol/mol in the assay listed under Bos taurus [14], 0.93 mol/mol in the assay listed under Bos taurus [15], 0.81 mol/mol in the assay listed under Bos taurus [16] and 0.01 mol/mol in the assay listed under Bos taurus [17]. Besides, the result in the assay listed under Bos taurus [7] and in the assay filed under Bos taurus [8] was inactive.

For the origin of these results see ChEMBL document CHEMBL1144848, “Interaction of a cyclostreptin analogue with the microtubule taxoid site: the covalent reaction rapidly follows binding” (J Nat Prod, 2008).
